# What was measured:
# [1] = target: human CDK4 and genetically truncated (1-264) cyclin D3 (Homo sapiens, UniProt P11802); assay: Inhibition of CDK4/Cyclin D Retinoblastoma Kinase Activity; assay type: biochemical; settings: 0.03 μM compound; Table 3
# Procedure, shortened: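 Human CDK4/truncated cyclin D3 (1-264) complex from baculovirus-infected insect cells, 5 nM, phosphorylating Rb fragment (residues 386-928, His-tagged) with 25 μM [32/33P]ATP in HEPES pH 7.4, MgCl2, 2% DMSO at 30° C. for 20 min (60 min for tight binders). Filter-captured radioactivity by phosphorimager; apparent Ki from competitive or tight-binding fits.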
# [2] = target: CDK2/Cyclin A (Homo sapiens, UniProt P24941); assay: Inhibition of CDK2/Cyclin A Retinoblastoma Kinase Activity; assay type: biochemical; settings: 0.03 μM compound; Table 3
# Procedure, shortened: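 Baculovirus-expressed CDK2 complexed with proteolyzed cyclin A (10 or 19 nM), Rb fragment substrate, 25 μM [32P/33P]ATP, HEPES pH 7.4, 30 °C for 60 or 75 min under initial-rate conditions. Filter capture and phosphorimager readout; apparent Ki fitted to competitive or tight-binding competitive inhibition.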
# [3] = system: HCT-116 cell line; assay: Inhibition of cell growth, tetrazolium salt (MTT) assay; assay type: cell-based; settings: HCT-116, Table 3; for HCT-116 % Inhibition at 0.1 μM: 0.1 μM compound; for HCT-116 % Inhibition at 0.25 μM: 0.25 μM compound
# Procedure, shortened: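 Growth inhibition is scored relative to cells receiving only 0.5% (v/v) DMSO. Plated cells rest 4 h, then take compound for three to five days at 37° C; MTT reduction to formazan is read at 540 nm.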
# Sequence of human CDK4 and genetically truncated (1-264) cyclin D3 (P11802 whole entry, the tested form may be a part): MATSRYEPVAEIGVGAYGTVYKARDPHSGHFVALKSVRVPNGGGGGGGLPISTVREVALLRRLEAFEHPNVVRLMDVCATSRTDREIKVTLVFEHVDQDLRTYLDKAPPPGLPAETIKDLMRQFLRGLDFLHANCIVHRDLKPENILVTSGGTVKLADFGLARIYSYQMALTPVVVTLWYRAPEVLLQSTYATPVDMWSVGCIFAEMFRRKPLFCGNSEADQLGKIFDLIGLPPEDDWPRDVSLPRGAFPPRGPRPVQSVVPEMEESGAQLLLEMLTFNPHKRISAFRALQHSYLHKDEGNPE
# Sequence of human CDK4 and genetically truncated (1-264) cyclin D3 (P30281 1-264 partner): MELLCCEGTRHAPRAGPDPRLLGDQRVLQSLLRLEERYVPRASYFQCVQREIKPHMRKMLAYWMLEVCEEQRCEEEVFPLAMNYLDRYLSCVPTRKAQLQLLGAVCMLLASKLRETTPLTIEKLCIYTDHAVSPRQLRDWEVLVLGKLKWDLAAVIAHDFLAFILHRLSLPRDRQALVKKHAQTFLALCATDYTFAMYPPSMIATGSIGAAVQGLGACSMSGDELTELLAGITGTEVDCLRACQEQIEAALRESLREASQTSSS
Compound,CDK4 % Inhibition at 0.03 μM [1] [%],CDK2 % Inhibition at 0.03 μM [2] [%],HCT-116 % Inhibition at 0.1 μM [3] [%],HCT-116 % Inhibition at 0.25 μM [3] [%]
CCCCS(=O)(=O)N1CCC(Nc2nc(N)c(C(=O)c3c(F)cccc3F)s2)CC1 [Example P27],41,16,4,23
COC(=O)c1ccccc1S(=O)(=O)N1CCC(Nc2nc(N)c(C(=O)c3c(F)cccc3F)s2)CC1 [Example P28],56,55,7,28
Nc1nc(NC2CCN(S(=O)(=O)c3cc(Cl)sc3Cl)CC2)sc1C(=O)c1c(F)cccc1F [Example P35],47,37,1,22
COc1ccc(S(=O)(=O)N2CCC(Nc3nc(N)c(C(=O)c4c(F)cccc4F)s3)CC2)cc1OC [Example P38],74,73,15,35
Nc1nc(NC2CCN(S(=O)(=O)c3cccc(Cl)c3Cl)CC2)sc1C(=O)c1c(F)cccc1F [Example P39],42,24,0,25
N#Cc1ccccc1S(=O)(=O)N1CCC(Nc2nc(N)c(C(=O)c3c(F)cccc3F)s2)CC1 [Example P48],67,59,24,31
Cc1nn(C)c(Cl)c1S(=O)(=O)N1CCC(Nc2nc(N)c(C(=O)c3c(F)cccc3F)s2)CC1 [Example P50],35,30,14,25
Cc1noc(C)c1S(=O)(=O)N1CCC(Nc2nc(N)c(C(=O)c3c(F)cccc3F)s2)CC1 [Example P51],27,3,18,21
N#Cc1c(Cl)cccc1Oc1ccc(S(=O)(=O)N2CCC(Nc3nc(N)c(C(=O)c4c(F)cccc4F)s3)CC2)cc1 [Example P52],47,49,16,22
CS(=O)(=O)CS(=O)(=O)N1CCC(Nc2nc(N)c(C(=O)c3c(F)cccc3F)s2)CC1 [Example P53],16,−23,21,27
Nc1nc(NC2CCN(S(=O)(=O)c3cc(OCC(F)(F)F)ccc3OCC(F)(F)F)CC2)sc1C(=O)c1c(F)cccc1F [Example P54],34,17,22,23
COc1ccc(Cl)cc1S(=O)(=O)N1CCC(Nc2nc(N)c(C(=O)c3c(F)cccc3F)s2)CC1 [Example P56],26,21,20,34
Nc1nc(NC2CCN(S(=O)(=O)c3c(Cl)cc(Cl)cc3Cl)CC2)sc1C(=O)c1c(F)cccc1F [Example P57],6,23,9,31
Nc1nc(NC2CCN(S(=O)(=O)c3ccc(O)c(C(=O)O)c3)CC2)sc1C(=O)c1c(F)cccc1F [Example P58],15,−16,14,30
COc1ccc(C)cc1S(=O)(=O)N1CCC(Nc2nc(N)c(C(=O)c3c(F)cccc3F)s2)CC1 [Example P59],33,17,19,24

# Further lines, with some results ahead:
CDK4 % Inhibition at 0.03 μM [1] [%],CDK2 % Inhibition at 0.03 μM [2] [%],Compound,HCT-116 % Inhibition at 0.1 μM [3] [%],HCT-116 % Inhibition at 0.25 μM [3] [%]
56,35,Nc1nc(NC2CCN(S(=O)(=O)c3cccc(C(=O)O)c3)CC2)sc1C(=O)c1c(F)cccc1F [Example P29],0,21
61,53,CCc1ccc(S(=O)(=O)N2CCC(Nc3nc(N)c(C(=O)c4c(F)cccc4F)s3)CC2)cc1 [Example P30],9,17
50,40,CC(C)c1ccc(S(=O)(=O)N2CCC(Nc3nc(N)c(C(=O)c4c(F)cccc4F)s3)CC2)cc1 [Example P31],3,16
59,58,Nc1nc(NC2CCN(S(=O)(=O)c3ccccc3F)CC2)sc1C(=O)c1c(F)cccc1F [Example P32],13,28
59,56,Nc1nc(NC2CCN(S(=O)(=O)c3ccc(C(F)(F)F)cc3)CC2)sc1C(=O)c1c(F)cccc1F [Example P33],6,32
58,60,Nc1nc(NC2CCN(S(=O)(=O)c3ccc(F)cc3F)CC2)sc1C(=O)c1c(F)cccc1F [Example P34],8,23
66,54,Nc1nc(NC2CCN(S(=O)(=O)c3ccc(Cl)s3)CC2)sc1C(=O)c1c(F)cccc1F [Example P36],8,26
65,58,Cc1cccc(S(=O)(=O)N2CCC(Nc3nc(N)c(C(=O)c4c(F)cccc4F)s3)CC2)c1 [Example P37],0,27
64,61,Nc1nc(NC2CCN(S(=O)(=O)c3ccc(CNC(=O)c4ccccc4)s3)CC2)sc1C(=O)c1c(F)cccc1F [Example P40],7,33
66,80,Nc1nc(NC2CCN(S(=O)(=O)c3cc(S(=O)(=O)c4ccccc4)cs3)CC2)sc1C(=O)c1c(F)cccc1F [Example P41],0,26
62,55,Nc1nc(NC2CCN(S(=O)(=O)c3ccc(S(=O)(=O)c4ccccc4)s3)CC2)sc1C(=O)c1c(F)cccc1F [Example P42],3,19
57,70,Nc1nc(NC2CCN(S(=O)(=O)c3ccc(S(=O)(=O)c4ccc(C(F)(F)F)cn4)s3)CC2)sc1C(=O)c1c(F)cccc1F [Example P43],0,17
62,55,Cn1nc(-c2ccc(S(=O)(=O)N3CCC(Nc4nc(N)c(C(=O)c5c(F)cccc5F)s4)CC3)s2)cc1C(F)(F)F [Example P44],0,25
82,65,Nc1nc(NC2CCN(S(=O)(=O)c3ccc(-c4ccccn4)s3)CC2)sc1C(=O)c1c(F)cccc1F [Example P45],14,27
68,59,Nc1nc(NC2CCN(S(=O)(=O)c3cccc(Br)c3)CC2)sc1C(=O)c1c(F)cccc1F [Example P46],10,20
82,81,N#Cc1ccc(S(=O)(=O)N2CCC(Nc3nc(N)c(C(=O)c4c(F)cccc4F)s3)CC2)cc1 [Example P47],0,26
54,36,CCCCOc1ccc(S(=O)(=O)N2CCC(Nc3nc(N)c(C(=O)c4c(F)cccc4F)s3)CC2)cc1 [Example P49],10,32
52,43,Nc1nc(NC2CCN(S(=O)(=O)c3ccc(F)cc3Cl)CC2)sc1C(=O)c1c(F)cccc1F [Example P55],20,25
70,74,Nc1nc(NC2CCN(S(=O)(=O)c3cccc4nsnc34)CC2)sc1C(=O)c1c(F)cccc1F [Example P62],22,26

# — patent publication US20050101595A1, “N-containing cycloalkyl-substituted amino-thiazole derivatives and pharmaceutical compositions for inhibiting cell proliferation and methods for their use” (PFIZER INC., priority 2003, published 2005)
